Data from patent US6921824B1, “Ruthenium dimeric complexes suitable as antimetastatic and antineoplastic agents” (priority 1999, dated 2005).
Marks after values point to notes of the source that are not given here.

Assays:
[1] = system: murine TS/A adenocarcinoma cells; test: In vitro cytotoxicity, SRB test (protein synthesis); assay type: cell-based; settings: for Antiproliferative activity (in words): SRB and MTT, up to 72 h
Description: (§1) In vitro cytotoxicity of complexes of the present invention on murine TS/A adenocarcinoma cells.
(§2) 4×10^3 murine TS/A adenocarcinoma cells resuspended in 200 μl RPMI-1640 medium supplemented with 10% FCS (fetal calf serum), 2 mM glutamine and 50 μg/ml gentamicin sulphate, were seeded in a 96-wells plate. After 24 hours incubation at 37° C., in 5% CO2, the complexes as described in example 4 (A), in example 7 (B), in example 8 (C) and in example 10 (D), each solubilised in RPMI-1640 medium supplemented with 5% FCS, 2 mM glutamine and 50 μg/ml gentamicin sulphate, were added to the cells, each at a final concentration of 10^−4, 10^−5 and 10^−6 M. Cell viability tests were performed after 24, 48 and 72 hours of exposure to the compounds by assessing both the effect on protein synthesis and on mitochondrial activity by means of colorimetric assays, respectively the solphorodamine B test (SRB) and the MTT analysis. Each value (optical density) is the average percentage ±S.E. versus the untreated controls.
(§3) Values such as *p<0.05, **p<0.01 indicate average values statistically different from the controls. Analysis of Variance and Dunnet test were used in the comparison analysis.
(§4) The results are reported in Table 3, wherein both the effect on protein synthesis (SRB) and the mitochondrial activity (MTT) are reported for each complexes tested at different dosages after different exposure time.

[2] = system: murine TS/A adenocarcinoma cells; test: In vitro cytotoxicity, MTT analysis (mitochondrial activity); assay type: cell-based
Description: as §1, §2, §3, §4

Row | Compound | SRB optical density, average percentage ±S.E. versus untreated controls ([1]; 10^−4 M, exposure time 24 h) | SRB optical density, average percentage ±S.E. versus untreated controls ([1]; 10^−4 M, exposure time 48 h) | SRB optical density, average percentage ±S.E. versus untreated controls ([1]; 10^−4 M, exposure time 72 h) | SRB optical density, average percentage ±S.E. versus untreated controls ([1]; 10^−5 M, exposure time 24 h) [%] | SRB optical density, average percentage ±S.E. versus untreated controls ([1]; 10^−5 M, exposure time 48 h) [%] | SRB optical density, average percentage ±S.E. versus untreated controls ([1]; 10^−5 M, exposure time 72 h) [%] | SRB optical density, average percentage ±S.E. versus untreated controls ([1]; 10^−6 M, exposure time 24 h) [%] | SRB optical density, average percentage ±S.E. versus untreated controls ([1]; 10^−6 M, exposure time 48 h) [%] | SRB optical density, average percentage ±S.E. versus untreated controls ([1]; 10^−6 M, exposure time 72 h) [%] | Antiproliferative activity (in words) [1] | MTT optical density, average percentage ±S.E. versus untreated controls ([2]; 10^−4 M, exposure time 24 h) | MTT optical density, average percentage ±S.E. versus untreated controls ([2]; 10^−4 M, exposure time 48 h) | MTT optical density, average percentage ±S.E. versus untreated controls ([2]; 10^−4 M, exposure time 72 h) | MTT optical density, average percentage ±S.E. versus untreated controls ([2]; 10^−5 M, exposure time 24 h) [%] | MTT optical density, average percentage ±S.E. versus untreated controls ([2]; 10^−5 M, exposure time 48 h) [%] | MTT optical density, average percentage ±S.E. versus untreated controls ([2]; 10^−5 M, exposure time 72 h) [%] | MTT optical density, average percentage ±S.E. versus untreated controls ([2]; 10^−6 M, exposure time 24 h) [%] | MTT optical density, average percentage ±S.E. versus untreated controls ([2]; 10^−6 M, exposure time 48 h) [%] | MTT optical density, average percentage ±S.E. versus untreated controls ([2]; 10^−6 M, exposure time 72 h) [%]
1 | C[SH](C)(=O)[Ru-]([Cl])([Cl])([Cl])([Cl])[n+]1cc[n+]([Ru-]([Cl])([Cl])([Cl])([Cl])[SH](C)(C)=O)cc1.[Na+].[Na+] [Example 4, [Na]2[trans-RuCl4(Me2SO)]2(μ-pyz)] | 32 ± 1** % | 51 ± 2** % | 66 ± 2** % | 99 ± 5 | 95 ± 1 | 95 ± 2 | 112 ± 3 | 102 ± 5 | 107 ± 2 | scarce and reversible | 34 ± 1** % | 50 ± 7** % | 59 ± 1** % | 100 ± 10 | 108 ± 12 | 93 ± 4 | 105 ± 10 | 101 ± 9 | 89 ± 2
2 | C[SH](C)(=O)[Ru-]([Cl])([Cl])([Cl])([Cl])[n+]1ccc[n+]([Ru-]([Cl])([Cl])([Cl])([Cl])[SH](C)(C)=O)c1.[Na+].[Na+] [Example 7, [Na]2[trans-RuCl4(Me2SO)]2(μ-pym)] | 58 ± 2** % | 73 ± 8* % | 61 ± 2** % | 95 ± 9 | 108 ± 5 | 100 ± 1 | 101 ± 9 | 100 ± 3 | 95 ± 7 |  | 90 ± 10% | 71 ± 12* % | 60 ± 1** % | 117 ± 1 | 104 ± 9 | 93 ± 9 | 110 ± 2 | 110 ± 13 | 104 ± 8
3 | C[SH](C)(=O)[Ru-]([Cl])([Cl])([Cl])([Cl])[n+]1ccc(CCc2cc[n+]([Ru-]([Cl])([Cl])([Cl])([Cl])[SH](C)(C)=O)cc2)cc1.[Na+].[Na+] [Example 10, [Na]2[trans-RuCl4(Me2SO)]2(μ-etbipy)] | 47 ± 2** % | 62 ± 14** % | 73 ± 2** % | 81 ± 8 | 94 ± 3 | 95 ± 1 | 102 ± 9 | 81 ± 5 | 93 ± 5 |  | 76 ± 9% | 65 ± 4** % | 76 ± 4** % | 97 ± 12 | 93 ± 2 | 84 ± 5 | 114 ± 7 | 109 ± 4 | 88 ± 4
4 | [Na]2[trans-RuCl4(Me2SO)]2(μ-bipy) [Example 8] | 16 ± 1** % | 49 ± 6** % | 78 ± 5** % | 102 ± 9 | 86 ± 9 | 88 ± 7 | 77 ± 6 | 92 ± 8 | 95 ± 2 | scarce and reversible | 33 ± 5** % | 52 ± 9** % | 68 ± 4** % | 129 ± 9 | 91 ± 3 | 90 ± 2 | 91 ± 7 | 103 ± 9 | 93 ± 5
